Test results reported in patent publication US20050148073A1, “Induction of hepatocyte proliferation in vitro by inhibition of cell cycle inhibitors” (priority 2002, published 2005).

Key:
primary rat hepatocytes [1] = assay: Hepatocyte morphology / cell spreading (scanning electron micrographs); type: cell-based; details: 24 hours
Excerpt: PKA inhibition also had surprising effects on cell morphology. It has been proposed that malleable substrates such as collagen gel are unable to promote cell spreading because it lacks sufficient mechanical strength to resist contractile forces applied by the cell to its adhesion sites.

primary rat hepatocytes [2] = assay: DNA synthesis, [3H]thymidine incorporation in hepatocytes on collagen film or gel; type: cell-based
Procedure: (§1) FIG. 2. Effects of PKA inhibition on morphology and cell cycle progression on collagen gel. (A) PKA activity was assessed in hepatocytes cultured on gel or film. In vitro kinase assay was performed; DPM=total ^32P-incorporation, minus counts from sample without substrate. […] [^3H]Thymidine incorporation was assessed from 48-96 hr. (C) Phosphorylation of p42/44 ERKs was determined in hepatocytes cultured on collagen gel for 50 hr by Western blot using a phospho-specific p42/44 antibody (NEB). […] EGF receptor (EGFr) was immunoprecipitated, followed by Western blot analysis of phospho-tyrosine (P-Tyr) or total EGFr.
Once it was confirmed that PKA activity was higher in cells cultured on gel, PKA activity was modified to assess its role in cell cycle progression.
DNA Synthesis: DNA synthesis will be measured using [^3H]-thymidine incorporation in substrate-coated 96-well plates, as previously described (Hansen 1999). DPMs will be normalized to cell number assessed in parallel plates using the CyQuant Assay (Molecular Probes).
Hepatocyte Culture: Cells are obtained by collagenase perfusion of adult Lewis rat liver (Aiken 1990), followed by purification through a Percoll gradient (Sigma, St. Louis, Mo.). Hepatocytes will be plated (12,000 cells/cm^2) in serum-free William's medium E with defined additives including EGF (10 ng/ml, Collaborative Research, Bedford, Mass.) and insulin (20 mU/ml, Sigma) (Hansen 1994).

p42/44 ERKs = assay: Phosphorylation of p42/44 ERKs by Western blot; type: cell-based, rat; details: hepatocytes on collagen gel for 50 hr, with H89
Procedure: as §1
To determine if ERK activation occurs on both collagen substrates (film and gel), phosphorylation of ERKs was measured using Western blot analysis and antibodies against the phosphorylated form of ERK 1/2 (New England Biolabs). […] Once plated onto collagen film, ERK phosphorylation persisted and increased slightly over the first 2 hours in culture, then gradually diminished out to 24 hours. A second peak of phosphorylation was observed by 48 hours, just prior to entry into S phase. Both peaks of phosphorylation correlated with increased ERK kinase activity as determined by in vitro kinase assays. In contrast, the initial phosphorylation subsides more rapidly in cells on collagen gel and the second peak of ERK phosphorylation was absent. […]

primary rat hepatocytes [3] = assay: Cell counting 96 hr after plating on collagen gel (hemocytometer); type: cell-based; details: H89 3 μM
Procedure: (§2) FIG. 4. Effects of PKA inhibition on hepatocyte proliferation and differentiation. […] Medium was replaced at 96 hr and collected for analysis at 120 hr. Albumin secretion was determined by ELISA.
While growth on collagen films was also high, hepatocytes quickly become de-differentiated on collagen films.
Proliferation: Hepatocytes cultured on 35 mm dishes will be removed from plates using a combination of trypsin, collagenase, and DNAse at various times after plating. Cells are counted using a Coulter counter and hemocytometer. A cell count at 24 hour is also determined to assess the initial number of viable, attached cells. Plates are run in triplicate.

primary rat hepatocytes [4] = assay: Albumin secretion by ELISA (differentiated function); type: cell-based; details: collagen gel; text: after 48 hours in culture; H89 3 μM
Procedure: FIG. 4. Effects of PKA inhibition on hepatocyte proliferation and differentiation. […] Albumin secretion was determined by ELISA.
(§3) Albumin is a protein synthesized and secreted by hepatocytes and this assay is routinely used as a marker of differentiated function. […] Urea production is also maintained on collagen gel in the presence of PKA inhibition (FIG. 4C).

primary rat hepatocytes [5] = assay: Urea production in hepatocytes on collagen gel; type: cell-based; details: with PKA inhibition (FIG. 4C: with or without H89)
Procedure: as §2, §3

hepatocytes [6] = assay: Cell counts after pulsed PKA inhibition, Example 6 (hemocytometer, Coulter counter); type: cell-based, rat
Procedure: Coating: 60 mm plates were coated with film or 5× gel, as described above, with 4 replicates per condition. […] Culture: The cells were cultured as described above, changing media in all plates at 72 hrs, and again at 96 hrs (day 4). […] Harvest: Gel—media was removed from plates. Five mL collagenase (approx. 1 mg/ml) in PBS was added to plates and incubated for 20 minutes at 37° C. Three mL trypsin-EDTA was added directly to collagenase solution and incubated another 15 minutes at 37° C. Media was removed with a pipette and plate was washed several times with the media, before the media was collected into a 15 mL tube. Tubes were centrifuged at 1000 rpm for 10 minutes at 4° C. Supernatant was removed and pellets from each of the four replicates were resuspended in 1 mL fresh media. Tube was weighed for end volume and equalized to 1 ml later. Film—Media was removed from plates. Trypsin-EDTA was added to dishes (3 ml/dish) and dishes were incubated at 37° C. for 15 minutes. Procedure was repeated. Samples were snap frozen in ethanol at −70° C. before thawing and counting. Counting: Hemocytometer—100 μL sample was added to 900 μL trypan blue in PBS […]. Cells were counted. Repeated procedure seven times for eight total counts per sample. Coulter Counter—Added 250 μL sample to 20 mL PBS in small Coulter vessel. Counted with predetermined pre-sets, collecting 1 mL of 20 mL sample and recording result. Repeated procedure seven times for eight total counts per sample. It should be noted that the inventors also determined that a pulse of PKA inhibitor is preferable to a constant exposure to PKA. If the PKA inhibitor is left on for the entire culture period, there is no enhanced cell number, presumably due to the requirement of PKA in later stages of the cell cycle. Thus, the methodology differs slightly from our initial report in which we simply stated the inhibitor is added to the culture. In the present experiments, the inventors exposed the cells to the inhibitor on for the first 72 hours, removed it for the next 24 hours, and then added it back again.

hepatocytes [7] = assay: Dot blot of albumin secretion, 72 hour media samples; type: cell-based, rat
Procedure: FIG. 6. Dot blot of albumin secretion—72 hour media samples.
The observed enhanced cell number was accompanied by NO change in albumin secretion, which is a standard measure of differentiated function. […] It also compares it to a thin film of type I collagen on which hepatocytes may proliferate but also lose differentiated function. Inhibition of PKA has little effect on DNA synthesis, cell counts, or albumin secretion in hepatocytes cultured on film.

[8] = tested on: protein kinase inhibitory peptide, PKI

## Nc1ncnc2c1nc(Br)n2[C@@H]1O[C@@H]2COP(=O)(O)O[C@H]2[C@H]1O [8-Br-cAMP]
Primary rat hepatocytes [1]; collagen film
  cell spreading on collagen film: significantly inhibits cell spreading

## O=S(=O)(NCCNC/C=C/c1ccc(Br)cc1)c1cccc2cnccc12 [H89, N-[2-((p-bromocinnamyl)amino)ethyl]-5-isoquinolinesulfonamide]
Primary rat hepatocytes [2]; H89 2 μM vs DMSO, collagen gel, [3H]thymidine incorporation 48-96 hr
  DNA synthesis on collagen gel: significantly increased
Primary rat hepatocytes [2]; H89 2 μM vs DMSO, film-plated cells, 48-96 hr
  DNA synthesis on collagen film: little effect
Primary rat hepatocytes [2]; collagen film, Example 6 discussion
  DNA synthesis in hepatocytes cultured on film: little effect
p42/44 ERKs
  ERK phosphorylation: significantly enhanced
Primary rat hepatocytes [1]; collagen gel
  cell spreading on collagen gel: significant spreading
Primary rat hepatocytes [3]
  increase in cell number compared to DMSO controls: 67%
Primary rat hepatocytes [4]
  albumin secretion compared to DMSO controls: not reduced
Primary rat hepatocytes [5]
  urea production: maintained
Hepatocytes [6]; collagen film
  cell counts in hepatocytes cultured on film: little effect
Hepatocytes [6]; type I collagen gel, eight days in culture, 3.3 μM H89 pulsed
  higher cell number with PKA inhibition: 15-20%
Hepatocytes [6]; type I collagen gel, eight days, 3.3 μM H89 pulsed, p-value=0.0004
  average increase in cell number, five experiments: 16%±3.3%
Hepatocytes [6]; type I collagen gel, representative experiment (FIG. 5A)
  cell number at four days: no change in cell number
Hepatocytes [7]; collagen film
  albumin secretion in hepatocytes cultured on film: little effect
Hepatocytes [7]; collagen gel cultures with or without H89, 72 hours
  albumin secretion (dot blot, not quantitated): NO change

## N#CC(=C(/N)Sc1ccccc1N)/C(C#N)=C(\N)Sc1ccccc1N [U0126]
Primary rat hepatocytes [2]; inhibitor applied during early G1
  DNA synthesis, MEK1 inhibition during early G1: does not
Primary rat hepatocytes [2]; inhibitor applied during late G1
  DNA synthesis, MEK1 inhibition during late G1: inhibits DNA synthesis

## protein kinase A (PKA)
[8]
  [^32P] incorporation in the in vitro PKA kinase assay: the protein kinase inhibitory peptide, PKI, specifically inhibits [^32P] incorporation
